Common to all, as to assay type: functional
The subject of experiment [1] is Mus musculus. In words: Plasma cholesterol level was evaluated in Swiss white mice treated with 20 mg/kg/day of ip administration for 14 days. The conditions noted are these: route intraperitoneal.
Experiment [2] relates to Mus musculus. Nature of the experiment: Plasma triglyceride level was evaluated in Swiss white mice treated with 20 mg/kg/day of ip administration for 14 days. The conditions noted are these: route intraperitoneal.
Experiment [3] is filed under the species Mus musculus. In words: Animal body weight was evaluated in Swiss white mice before treatment with the compound.
The species named for experiment [4] is Mus musculus. In words: Plasma cholesterol level was evaluated in Swiss white mice before treatment with the compound.
Experiment [5] is filed under the species Mus musculus. Nature of the experiment: Plasma triglyceride level was evaluated in Swiss white mice before treatment with the compound.
The subject of experiment [6] is Mus musculus. Nature of the experiment: Animal body weight was evaluated in Swiss white mice treated with 20 mg/kg/day of ip administration for 14 days. The conditions noted are these: route intraperitoneal.

As for `O=C(O)c1ccccc1C(=O)Nc1ccc(F)cc1`, the Cholesterol in the experiment on Mus musculus [1] was under 3.17 mM; in the experiment listed under Mus musculus [4] it was 2.66 mM. In addition, the Triglycerides with Mus musculus [2] is under 1.48 mM; in the experiment filed under Mus musculus [5] it was 1.26 mM. Also, the Body weight is given as 20 g in the experiment filed under Mus musculus [3] and under 25 g with Mus musculus [6].
Regarding `O=C(O)c1ccccc1C(=O)Nc1ccccc1Cl`, the Cholesterol in the experiment on Mus musculus [1] is under 2.43 mM; in the experiment filed under Mus musculus [4], 2.11 mM. Besides, the Triglycerides in the experiment with Mus musculus [2] was under 1.32 mM; in the experiment filed under Mus musculus [5], 1.06 mM. The Body weight in the experiment filed under Mus musculus [3] was 26 g; with Mus musculus [6] it was under 29 g.
With `O=C(O)c1ccccc1C(=O)Nc1ccccc1F`, the Cholesterol in the experiment with Mus musculus [1] is under 3.4 mM; in the experiment listed under Mus musculus [4], 3.06 mM. Besides, the Triglycerides with Mus musculus [2] is under 1.23 mM; in the experiment listed under Mus musculus [5] it was 0.94 mM. Besides, the Body weight in the experiment filed under Mus musculus [3] is listed as 26 g; in the experiment on Mus musculus [6] it was under 30 g.
For the compound `O=C(O)c1ccccc1C(=O)Nc1ccc(Cl)cc1`, the Cholesterol in the experiment on Mus musculus [1] was under 2.51 mM; in the experiment listed under Mus musculus [4], 2.3 mM. The Triglycerides with Mus musculus [2] is under 1.06 mM; in the experiment filed under Mus musculus [5] it was 0.86 mM. The Body weight stood at 25 g in the experiment filed under Mus musculus [3] and 28 g in the experiment on Mus musculus [6].
For `O=C(O)c1ccccc1C(=O)Nc1ccccc1`, the figures for the Cholesterol in the experiment on Mus musculus [1] and in the experiment listed under Mus musculus [4] were under 3.06 mM and 2.71 mM, respectively. Besides, the Triglycerides in the experiment on Mus musculus [2] was under 1.3 mM; in the experiment filed under Mus musculus [5], 1.07 mM. Further, the values for the Body weight in the experiment listed under Mus musculus [3] and in the experiment with Mus musculus [6] were 28 g and 29 g, respectively.
As for `O=C(O)c1ccccc1C(=O)Nc1nc[nH]n1`, the values for the Cholesterol in the experiment with Mus musculus [1] and in the experiment listed under Mus musculus [4] were 2.78 mM and 2.45 mM, respectively. The Triglycerides was under 1.58 mM in the experiment with Mus musculus [2] and 1.14 mM in the experiment listed under Mus musculus [5]. Moreover, the Body weight in the experiment listed under Mus musculus [3] amounted to 35 g; with Mus musculus [6] it was 38 g.
As for `O=C(O)c1ccccc1C(=O)Nc1cccc(Cl)c1`, the Cholesterol in the experiment on Mus musculus [1] was under 2.48 mM; in the experiment filed under Mus musculus [4], 2.17 mM. Also, the Triglycerides in the experiment with Mus musculus [2] was under 1.28 mM; in the experiment listed under Mus musculus [5], 1.04 mM. Further, the Body weight in the experiment listed under Mus musculus [3] is given as 24 g; in the experiment on Mus musculus [6] it was under 28 g.
With `O=C(O)c1ccccc1C(=O)Nc1cccc(F)c1`, the values for the Cholesterol with Mus musculus [1] and in the experiment listed under Mus musculus [4] were under 3.28 mM and 3.02 mM, respectively. For the same compound, the Triglycerides in the experiment on Mus musculus [2] is under 1.35 mM; in the experiment listed under Mus musculus [5], 1.01 mM. Further, the values for the Body weight in the experiment listed under Mus musculus [3] and in the experiment with Mus musculus [6] were 26 g and under 29 g, respectively.
With `O=C(O)c1ccccc1C(=O)Nn1cnnc1`, the figures for the Cholesterol in the experiment with Mus musculus [1] and in the experiment listed under Mus musculus [4] were 2.95 mM and 2.46 mM, respectively. For the same compound, the values for the Triglycerides in the experiment with Mus musculus [2] and in the experiment listed under Mus musculus [5] were under 1.49 mM and 1.12 mM, respectively. Besides, the results for the Body weight in the experiment filed under Mus musculus [3] and in the experiment with Mus musculus [6] were 35 g and 39 g, respectively.

The values are drawn from ChEMBL document CHEMBL1133800, “Microwave assisted synthesis of N-arylphthalamic acids with hyperlipidemic activity” (2001).
